Data: PubChem BioAssay (NCI)
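The compound was tested at five concentrations on cells cultured in 96-well plates, with a 48-hour exposure period. TGI is the concentration that stops growth completely.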

Key:
Assay in all cases: NCI anticancer screen, dose series, 48 h
DLD-1 colon = tested on: DLD-1 colon
DMS 273 small cell lung = tested on: DMS 273 small cell lung
K-562 leukemia = tested on: K-562 leukemia
KM20L2 colon = tested on: KM20L2 colon
MOLT-4 leukemia = tested on: MOLT-4 leukemia
NCI-H460 lung = tested on: NCI-H460 lung
NCI-H522 lung = tested on: NCI-H522 lung
OVCAR-5 ovarian = tested on: OVCAR-5 ovarian
SN12C renal = tested on: SN12C renal
SR leukemia = tested on: SR leukemia
M19-MEL melanoma = tested on: M19-MEL melanoma
BT-549 breast = tested on: BT-549 breast

Row | Structure (SMILES) | TGI (DLD-1 colon) [µM] | TGI (DMS 273 small cell lung) [µM] | TGI (K-562 leukemia) [µM] | TGI (KM20L2 colon) [µM] | TGI (MOLT-4 leukemia) [µM] | TGI (NCI-H460 lung) [µM] | TGI (NCI-H522 lung) [µM] | TGI (OVCAR-5 ovarian) [µM] | TGI (SN12C renal) [µM] | TGI (SR leukemia) [µM] | TGI (M19-MEL melanoma) [µM] | TGI (BT-549 breast) [µM]
1 | COC(=O)[C@]1(C)CCC[C@]2(C)C3CC4OOC3(C=C4C(C)C)CCC21 (stereo partly specified) | 29.1 | 34.5 | 33.7 | 32 | 49.8 | 25.7 | 3.41 | 41.5 | 31.7 | 26.6 | – | –
2 | C=C1CCC2C(C)(CO)C(O)CCC2(C)C1CC(O)C1=CCOC1=O (stereo unspecified) | > 100 | > 100 | > 100 | > 100 | > 100 | > 100 | 20.3 | > 100 | > 100 | 65.9 | > 100 | –
3 | N#Cc1ccccc1/C=N/O | > 100 | > 55.6 | > 65.6 | > 100 | > 100 | > 100 | > 100 | > 100 | > 100 | > 100 | > 100 | –
4 | CCCN1CN(C(C(=O)N[C@@H]2C(=O)N3C(C(=O)O)=C(C)CSC23)c2ccccc2)CSC1=S (stereo partly specified) | > 100 | > 100 | > 100 | > 100 | > 100 | > 100 | > 100 | > 100 | > 100 | – | > 100 | –
5 | C/C(CC(=O)Nc1ccc([N+](=O)[O-])cc1)=N/N=C(N)N | > 100 | > 100 | > 100 | > 100 | > 100 | > 100 | > 100 | > 100 | – | – | > 100 | –
6 | Cc1ccc(S(=O)(=O)NC(=O)Nc2nc(Cl)cc(Cl)n2)cc1 | > 100 | – | > 100 | > 100 | > 100 | > 100 | 23.9 | > 100 | > 100 | – | > 100 | –
7 | O=c1nc2[nH]nc(-c3ccccc3)c2n[nH]1 | > 100 | > 100 | > 100 | > 100 | > 100 | > 100 | > 100 | > 100 | > 100 | > 100 | – | –
8 | C=CCn1c(=S)sc2c(=O)[nH]cnc21 | > 100 | > 100 | > 100 | > 100 | > 100 | > 100 | > 100 | > 100 | > 100 | > 100 | > 100 | –
9 | Cc1ccccc1C(C#N)/C(=N/NC(=O)C(=O)NN)C(=O)Nc1cccc(C(F)(F)F)c1 (stereo unspecified) | > 100 | > 100 | > 100 | > 100 | > 100 | > 100 | > 100 | > 100 | > 100 | > 100 | > 100 | –
10 | COc1cc([C@@H]2c3cc4c(cc3[C@@H](NC(=O)c3ccc([N+](=O)[O-])cc3)C3COC(=O)[C@@H]32)OCO4)cc(OC)c1O (stereo partly specified) | 11.3 | 3.54 | > 100 | 3.73 | 1.31 | 2.38 | 2.09 | 76.2 | 1.37 | – | 19 | –
11 | C/C(CN1C(=O)c2ccccc2C1=O)=N\NS(C)(=O)=O | > 100 | > 100 | > 100 | > 100 | > 100 | > 100 | > 100 | > 100 | > 100 | – | > 100 | –
12 | O=CN/C=C/c1ccccc1O | > 100 | > 100 | > 31.6 | > 100 | > 100 | > 100 | > 100 | > 100 | > 100 | > 100 | > 100 | –
13 | Cn1c(C2CC(C)(C)c3c2c2ccccc2n3C)cc2ccccc21 (stereo unspecified) | > 304 | > 304 | > 304 | > 304 | > 304 | > 304 | > 304 | > 304 | > 304 | > 304 | > 304 | –
14 | O=C1CSc2ccncc2N1 | > 100 | > 100 | > 100 | > 100 | > 100 | > 100 | – | > 100 | > 100 | > 100 | > 100 | –
15 | Cn1c(-c2ccccc2)c/c(=N\NS(C)(=O)=O)c2cc(S(=O)(=O)O)ccc21 | > 100 | > 100 | > 100 | > 100 | > 100 | > 100 | > 100 | > 100 | > 100 | > 100 | > 100 | –
16 | COC(=O)c1c/c(=N\NC(=O)CC(=O)Nc2ccc(C)cc2)c2ccccc2o1 | > 100 | > 100 | > 100 | > 100 | > 100 | > 100 | > 100 | > 100 | > 100 | > 100 | > 100 | –
17 | COC(=O)c1cc(O)ccc1NC(=O)c1ccc(O)cc1 | > 100 | – | > 100 | > 100 | > 100 | > 100 | > 100 | > 100 | – | > 100 | > 100 | –
18 | O=C1CC23CC(=O)CC2(C1)c1ccccc1C3=O (stereo unspecified) | > 100 | > 100 | > 100 | > 100 | > 100 | > 100 | > 100 | > 100 | > 100 | – | > 100 | –
19 | FC(F)(F)c1ccccc1C=NC12CC3CC(CC(C3)C1)C2 | – | > 100 | > 100 | > 100 | > 100 | > 100 | – | > 100 | > 100 | > 100 | > 100 | –
20 | COC(=O)C1CCc2nnc(-c3cccnc3)n21 (stereo unspecified) | > 100 | > 100 | > 100 | > 100 | > 100 | > 100 | > 100 | – | > 100 | > 100 | > 100 | –
21 | NC(CCCNCc1ccccc1O)C(=O)O (stereo unspecified) | > 100 | > 100 | > 100 | > 100 | > 100 | > 100 | > 100 | > 100 | > 100 | – | > 100 | –
22 | Clc1ccc(CCn2cncn2)c(Cl)c1 | > 100 | > 100 | > 100 | > 100 | > 100 | > 100 | > 100 | > 100 | > 100 | > 100 | > 100 | –
23 | COC(=O)/C(Cl)=C1/CC1COCc1ccccc1 (stereo unspecified) | 45.8 | 54.9 | 49.9 | > 100 | 53.5 | > 100 | 40.5 | > 100 | > 100 | – | 93.2 | –
24 | O=S(=O)(c1ccccc1)C1CN(Cc2ccccc2)CCN(Cc2ccccc2)C1 | 84.7 | > 100 | > 100 | > 100 | > 100 | > 100 | 34.1 | > 100 | > 100 | > 100 | > 100 | > 100
25 | COC1(C)Cc2c(c(C)c(O)c3c2C(=O)C=C(Cl)C3=O)O1 (stereo unspecified) | 37.1 | > 100 | 36.8 | > 100 | 46.2 | > 100 | 33 | > 100 | > 96.7 | 23.5 | 38.9 | > 100
26 | CC1=NN(c2ccccc2)C(=O)C1C(=O)C(=O)Nc1ccc(C)cc1C (stereo unspecified) | > 100 | > 100 | > 100 | > 100 | > 100 | > 100 | > 100 | > 100 | > 100 | > 100 | > 100 | –
27 | [O-][N+]1=C(c2ccccc2)COc2ccccc21 | > 100 | > 100 | > 100 | > 100 | > 100 | > 100 | > 100 | > 100 | > 100 | > 100 | > 100 | –
